From US20230174492A1, “SUBSTITUTED CONDENSED AZINES AS ANTHELMINTIC COMPOUNDS” (Bayer Animal Health GmbH, priority 2020, published 2023) come the findings set out here.

What all share (assay type): cell-based
The target in one assay is D. immitis Slo-1 (Dirofilaria immitis, UniProt I0DFK5). Kind of assay: In Vitro Assay 2: D. immitis Slo-1, action at a recombinant D. immitis cell line (membrane potential, FLIPR).
Assay [1] deals with Nippostrongylus brasiliensis. Kind of assay: In Vitro Assay 3: Nippostrongylus brasiliensis (NIPOBR), acetylcholine esterase readout. The conditions noted are these: adult worms, read-out: activity (reduction of AChE compared to negative control); for inhibition at 1 µg/mL: at 1 μg/ml; for inhibition at 10 µg/mL: at 10 μg/ml. The procedure: In Vitro Assay 3: Nippostrongylus brasiliensis (NIPOBR)
Adult Nippostrongylus brasiliensis are washed with saline buffer containing 100 U/ml penicillin, 0.1 mg/ml streptomycin and 2.5 μg/ml amphotericin B. Test compounds are dissolved in DMSO and worms are incubated in medium in a final concentration of 10 μg/ml (10 ppm) respectively 1 μg/ml (1 ppm). An aliquot of the medium is used to determine the acetylcholine esterase activity in comparison to a negative control. The principle of measuring acetylcholine esterase as readout for anthelmintic activity is described in Rapson et al (1986) and Rapson et al (1987).

Assay [2] concerns Dirofilaria immitis microfilariae. As to the kind of experiment: In Vitro Assay 4: Dirofilaria immitis microfilariae (DIROIM L1), motility. As to conditions: 72 h.
Assay [3] concerns Dirofilaria immitis third-stage larvae. As to the kind of experiment: In Vitro Assay 5: Dirofilaria immitis (DIROIM L4), motility. The conditions noted are these: 72 h.
In assay [4] the test system is Nippostrongylus brasiliensis. Kind of assay: In Vitro Assay 3: Nippostrongylus brasiliensis (NIPOBR), acetylcholine esterase readout. The conditions noted are these: read-out: activity (reduction of AChE compared to negative control).

Structures are written as SMILES. Where only a bound is given, the exact number is not on record here.

Sequence of D. immitis Slo-1 (I0DFK5 1-1119): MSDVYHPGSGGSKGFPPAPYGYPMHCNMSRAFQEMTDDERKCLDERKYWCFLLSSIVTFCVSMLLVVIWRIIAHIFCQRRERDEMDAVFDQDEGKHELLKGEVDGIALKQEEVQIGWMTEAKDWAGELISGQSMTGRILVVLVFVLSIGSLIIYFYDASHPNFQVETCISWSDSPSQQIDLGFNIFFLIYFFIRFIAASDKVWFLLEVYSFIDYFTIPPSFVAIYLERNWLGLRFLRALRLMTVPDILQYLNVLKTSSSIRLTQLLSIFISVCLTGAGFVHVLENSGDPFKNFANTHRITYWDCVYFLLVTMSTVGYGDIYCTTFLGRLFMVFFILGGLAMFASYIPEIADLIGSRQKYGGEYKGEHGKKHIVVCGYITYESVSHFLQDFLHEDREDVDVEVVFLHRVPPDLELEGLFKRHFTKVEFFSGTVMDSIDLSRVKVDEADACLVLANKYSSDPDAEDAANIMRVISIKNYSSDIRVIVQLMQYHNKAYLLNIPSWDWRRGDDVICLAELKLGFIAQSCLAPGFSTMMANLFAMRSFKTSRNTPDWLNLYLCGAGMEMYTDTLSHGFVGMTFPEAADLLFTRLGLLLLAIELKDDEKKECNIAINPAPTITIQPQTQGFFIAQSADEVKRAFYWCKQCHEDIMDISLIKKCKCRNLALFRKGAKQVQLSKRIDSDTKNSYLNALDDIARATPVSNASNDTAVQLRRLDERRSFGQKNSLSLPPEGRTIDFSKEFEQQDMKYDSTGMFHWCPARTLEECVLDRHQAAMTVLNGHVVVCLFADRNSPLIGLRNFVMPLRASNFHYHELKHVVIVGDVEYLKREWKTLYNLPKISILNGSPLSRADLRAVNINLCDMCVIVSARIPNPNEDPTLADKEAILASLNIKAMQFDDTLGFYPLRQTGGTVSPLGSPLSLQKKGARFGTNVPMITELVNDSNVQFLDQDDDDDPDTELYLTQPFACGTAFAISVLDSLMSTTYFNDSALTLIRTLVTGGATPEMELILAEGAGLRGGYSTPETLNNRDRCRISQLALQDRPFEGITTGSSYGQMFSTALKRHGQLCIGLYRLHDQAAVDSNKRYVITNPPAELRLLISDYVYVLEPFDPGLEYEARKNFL

A word on the EC50: it is the concentration at which the effect is half-maximal. On to `CCc1c(NC(=O)C2CCOc3ccccc32)cnc2c(-c3cc(Cl)cc(Cl)c3)c(F)ccc12` (racemic) [Example 16, N-(8-(3,5-dichlorophenyl)-4-ethyl-7-fluoroquinolin-3-yl)chromane-4-carboxamide], for which the results for the EC50 (at D. immitis Slo-1; in assay [2]; in assay [3]) were 100 to 1000 nM, < 0.1 µg/mL and < 0.1 µg/mL, respectively. The inhibition at 1 µg/mL in assay [1] was > 80%. Also, the inhibition at 10 µg/mL in assay [1] was > 80%. Also, in assay [4], the inhibition at 0.1 µg/mL was > 80%.

As for `CN(C)c1c(NC(=O)C2CCc3ccccc32)cnc2c(-c3cccc(Cl)c3Cl)c(F)ccc12` (racemic) [Example 18, N-(8-(2,3-dichlorophenyl)-4-(dimethylamino)-7-fluoroquinolin-3-yl)-2,3-dihydro-1H-indene-1-carboxamide], the results for the EC50 (at D. immitis Slo-1; in assay [2]; in assay [3]) were 100 to 1000 nM, < 0.1 µg/mL and < 0.1 µg/mL, respectively. Further, the inhibition at 1 µg/mL in assay [1] is > 80%. Also, the inhibition at 10 µg/mL in assay [1] is > 80%.

In the case of `O=C(Nc1cnc2c(-c3cc(Cl)cc(Cl)c3)cccc2c1C1CCOCC1)C1CCc2ccccc21` (racemic) [Example 14, N-(8-(3,5-dichlorophenyl)-4-(tetrahydro-2H-pyran-4-yl)quinolin-3-yl)-2,3-dihydro-1H-indene-1-carboxamide], the EC50 on D. immitis Slo-1 is 100 to 1000 nM; in assay [2] it was < 0.1 µg/mL; in assay [3] it was < 0.1 µg/mL. In addition, in assay [1], the inhibition at 1 µg/mL is > 80%. For the same compound, the inhibition at 10 µg/mL in assay [1] is > 80%. Besides, the inhibition at 0.1 µg/mL in assay [4] is > 80%.

On to `CN(C)c1c(NC(=O)C2CCOc3ccccc32)cnc2c(-c3cc(F)cc(F)c3F)c(F)ccc12` (racemic) [Example 11, N-(4-(dimethylamino)-7-fluoro-8-(2,3,5-trifluorophenyl)quinolin-3-yl)chroman-4-carboxamide], for which the concentration giving a half-maximal response (EC50) on D. immitis Slo-1 was 10 to 100 nM; in assay [2], < 0.1 µg/mL; in assay [3], < 0.1 µg/mL. Also, in assay [1], the inhibition at 1 µg/mL is > 80%. In assay [1], the inhibition at 10 µg/mL was > 80%. The inhibition at 0.1 µg/mL in assay [4] was > 80%.

For the compound `CN(C)c1c(NC(=O)C2CCOc3ccccc32)cnc2c(-c3cccc(Cl)c3Cl)c(F)ccc12` (racemic) [Example 17, N-(8-(2,3-dichlorophenyl)-4-(dimethylamino)-7-fluoroquinolin-3-yl)chroman-4-carboxamide], the EC50 at D. immitis Slo-1 was 100 to 1000 nM; in assay [2] it was < 0.1 µg/mL; in assay [3], < 0.1 µg/mL. Further, the inhibition at 1 µg/mL in assay [1] is > 80%. In addition, the inhibition at 10 µg/mL in assay [1] is > 80%. For the same compound, the inhibition at 0.1 µg/mL in assay [4] is > 80%.

With `CN(C)c1c(NC(=O)[C@@H]2CCc3ccccc32)cnc2c(-c3cc(F)cc(F)c3F)cccc12` [Example 4, (R)-N-(4-(dimethylamino)-8-(2,3,5-trifluorophenyl)quinolin-3-yl)-2,3-dihydro-1H-indene-1-carboxamide], the figures for the concentration for a half-maximal effect (EC50) (on D. immitis Slo-1; in assay [2]; in assay [3]) were 100 to 1000 nM, < 0.1 µg/mL and < 0.1 µg/mL, respectively.

On to `CN(C)c1c(NC(=O)C2CCOc3ccccc32)cnc2c(-c3cc(F)cc(F)c3F)cccc12` (racemic) [Example 5, N-(4-(Dimethylamino)-8-(2,3,5-trifluorophenyl)quinolin-3-yl)chroman-4-carboxamide], for which the 50% effective concentration (EC50) on D. immitis Slo-1 is 100 to 1000 nM; in assay [2], < 0.1 µg/mL; in assay [3], < 0.1 µg/mL. Also, the inhibition at 1 µg/mL in assay [1] was > 80%. In assay [1], the inhibition at 10 µg/mL is > 80%. For the same compound, the inhibition at 0.1 µg/mL in assay [4] was > 80%.

As for `O=C(Nc1cnc2c(-c3cc(F)cc(F)c3F)c(F)ccc2c1C1CCOCC1)C1CCOc2ccccc21` (racemic) [Example 10, N-(7-Fluoro-4-(tetrahydro-2H-pyran-4-yl)-8-(2,3,5-trifluorophenyl)quinolin-3-yl)chroman-4-carboxamide], the figures for the half-maximal effective concentration (EC50) (at D. immitis Slo-1; in assay [2]; in assay [3]) were 10 to 100 nM, < 0.1 µg/mL and < 0.1 µg/mL, respectively. Moreover, the inhibition at 1 µg/mL in assay [1] is > 80%. For the same compound, the inhibition at 10 µg/mL in assay [1] was > 80%. For the same compound, the inhibition at 0.1 µg/mL in assay [4] was > 80%.

Regarding `O=C(Nc1cnc2c(-c3cc(Cl)cc(Cl)c3)c(F)ccc2c1N1CCOCC1)C1CCOc2ccccc21` (racemic) [Example 15, N-(8-(3,5-dichlorophenyl)-7-fluoro-4-morpholinoquinolin-3-yl)chromane-4-carboxamide], the concentration giving a half-maximal response (EC50) on D. immitis Slo-1 is 10 to 100 nM; in assay [2], < 0.1 µg/mL; in assay [3] it was < 0.1 µg/mL. Moreover, the inhibition at 1 µg/mL in assay [1] is > 80%. For the same compound, in assay [1], the inhibition at 10 µg/mL was > 80%.

Regarding `CN(C)c1c(NC(=O)C2CCc3ccccc32)cnc2c(-c3cc(F)cc(F)c3F)c(F)ccc12` (racemic) [Example 12, N-(4-(dimethylamino)-7-fluoro-8-(2,3,5-trifluorophenyl)quinolin-3-yl)-2,3-dihydro-1H-indene-1-carboxamide], the EC50 was 100 to 1000 nM at D. immitis Slo-1, < 0.1 µg/mL in assay [2] and < 0.1 µg/mL in assay [3].

For `O=C(Nc1cnc2c(-c3cc(F)cc(F)c3F)cccc2c1C1CCOCC1)C1CCOc2ccccc21` (racemic) [Example 9, N-(4-(Tetrahydro-2H-pyran-4-yl)-8-(2,3,5-trifluorophenyl)quinolin-3-yl)chroman-4-carboxamide], the EC50 is 100 to 1000 nM on D. immitis Slo-1, < 0.1 µg/mL in assay [2] and < 0.1 µg/mL in assay [3]. In assay [1], the inhibition at 1 µg/mL was > 80%. The inhibition at 10 µg/mL in assay [1] was > 80%. Besides, in assay [4], the inhibition at 0.1 µg/mL was > 80%.

In the case of `CN(C)c1c(NC(=O)[C@H]2CCOc3ccccc32)cnc2c(-c3cc(F)cc(F)c3F)cccc12` [Example 1, (S)-N-(4-(dimethylamino)-8-(2,3,5-trifluorophenyl)quinolin-3-yl)chromane-4-carboxamide], the 50% effective concentration (EC50) on D. immitis Slo-1 was 100 to 1000 nM; in assay [2] it was < 0.1 µg/mL; in assay [3] it was < 0.1 µg/mL. Moreover, the inhibition at 1 µg/mL in assay [1] is > 80%. Further, the inhibition at 10 µg/mL in assay [1] was > 80%.

With `CN(C)c1c(NC(=O)C2CCc3ccccc32)cnc2c(-c3cc(F)cc(F)c3F)cccc12` (racemic) [Example 6, N-(4-(Dimethylamino)-8-(2,3,5-trifluorophenyl)quinolin-3-yl)-2,3-dihydro-1H-indene-1-carboxamide], the EC50 was 100 to 1000 nM on D. immitis Slo-1, < 0.1 µg/mL in assay [2] and < 0.1 µg/mL in assay [3].

On to `CCc1c(NC(=O)C2CCOc3ccccc32)cnc2c(-c3cc(F)cc(F)c3F)c(F)ccc12` (racemic) [Example 13, N-(4-ethyl-7-fluoro-8-(2,3,5-trifluorophenyl)quinolin-3-yl)chromane-4-carboxamide], for which the EC50 was 10 to 100 nM at D. immitis Slo-1, < 0.1 µg/mL in assay [2] and < 0.1 µg/mL in assay [3]. Also, the inhibition at 1 µg/mL in assay [1] is > 80%. In assay [1], the inhibition at 10 µg/mL was > 80%. Besides, the inhibition at 0.1 µg/mL in assay [4] is > 80%.

Regarding `O=C(Nc1cnc2c(-c3cc(F)cc(F)c3F)cccc2c1N1CCOCC1)C1CCOc2ccccc21` (racemic) [Example 7, N-(4-Morpholino-8-(2,3,5-trifluorophenyl)quinolin-3-yl)chroman-4-carboxamide], the results for the EC50 (on D. immitis Slo-1; in assay [2]; in assay [3]) were 10 to 100 nM, < 0.1 µg/mL and < 0.1 µg/mL, respectively. The inhibition at 1 µg/mL in assay [1] was > 80%. The inhibition at 10 µg/mL in assay [1] was > 80%.

Turning to `CCc1c(NC(=O)C2CCOc3ccccc32)cnc2c(-c3cc(F)cc(F)c3F)cccc12` (racemic) [Example 8, N-(4-Ethyl-8-(2,3,5-trifluorophenyl)quinolin-3-yl)chroman-4-carboxamide], at D. immitis Slo-1, the concentration giving a half-maximal response (EC50) lay in the range of 100 to 1000 nM. In assay [1], the inhibition at 1 µg/mL was > 80% and the inhibition at 10 µg/mL was > 80%. Also, in assay [3], the EC50 was < 0.1 µg/mL.
